Reference: PubChem BioAssay (NCI)
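Assay format: 96-well plates, 48-hour exposure. GI50: concentration for 50% inhibition of growth. TGI: concentration producing complete growth inhibition.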

Assays:
Assay in all cases: NCI-60 cell line screen, 48 h
HCT-15 colon = tested on: HCT-15 colon
HCC-2998 colon = tested on: HCC-2998 colon
COLO 205 colon = tested on: COLO 205 colon
SF-539 CNS = tested on: SF-539 CNS
LOX IMVI melanoma = tested on: LOX IMVI melanoma
A549 NSCLC = tested on: A549 NSCLC
MOLT-4 leukemia = tested on: MOLT-4 leukemia
SK-MEL-5 melanoma = tested on: SK-MEL-5 melanoma
OVCAR-8 ovarian = tested on: OVCAR-8 ovarian
HCT-116 colon = tested on: HCT-116 colon

Structure (SMILES) | GI50 (HCT-15 colon) | TGI (HCT-15 colon) | GI50 (HCC-2998 colon) | TGI (HCC-2998 colon) | GI50 (COLO 205 colon) | TGI (COLO 205 colon) | GI50 (SF-539 CNS) | TGI (SF-539 CNS) | GI50 (LOX IMVI melanoma) | TGI (LOX IMVI melanoma) | GI50 (A549 NSCLC) | TGI (A549 NSCLC) | GI50 (MOLT-4 leukemia) | TGI (MOLT-4 leukemia) | GI50 (SK-MEL-5 melanoma) | TGI (SK-MEL-5 melanoma) | GI50 (OVCAR-8 ovarian) | TGI (OVCAR-8 ovarian) | GI50 (HCT-116 colon) | TGI (HCT-116 colon)
Clc1ccc2c(NCCCCNc3nc(N4CCCCC4)nc4ccccc34)ccnc2c1 | 1.15 µM | 3.13 µM | 1.96 µM | 4.23 µM | 1.64 µM | 3.59 µM | 1.49 µM | 2.97 µM | 1.5 µM | 3.14 µM | 3.15 µM | 10.3 µM | 1.98 µM | 5.62 µM | 1.77 µM | 3.18 µM | 2.82 µM | 10.4 µM | 1.2 µM | 3.06 µM
O=C(/C=C/c1ccccc1)NC1C=Nc2ccc(Cl)cc2NC1=O (stereo unspecified) |  | 61 µM |  | 65.5 µM |  | 33.9 µM |  | 88.2 µM |  | 55.9 µM |  | > 100 µM |  | 27.3 µM |  | 51.6 µM |  | > 100 µM |  | 85.7 µM
O=C1C=C(Cl)C(=O)C(c2ccc(Cl)cc2)=C1 |  | 47.5 µM |  | 34.2 µM |  | 31 µM |  | 32.4 µM |  | 35.7 µM |  | > 100 µM |  | 22.1 µM |  | 34.3 µM |  | 40.7 µM |  | 38.1 µM
O=C1C(=O)N(c2ccc(Cl)cc2Cl)C(=O)C(=O)C1c1nc2ccccc2s1 |  | > 100 µM |  | > 100 µM |  | > 100 µM |  | > 100 µM |  | > 100 µM |  | > 100 µM |  | > 89.2 µM |  | > 100 µM |  | > 100 µM |  | > 100 µM
NC(=O)c1cccc2cn(-c3ccc([C@@H]4CCCNC4)cc3)nc12 | 14.8 µM | 45.5 µM | 14.1 µM | 34.3 µM | 13.5 µM | 28.6 µM | 6.72 µM | 20.4 µM | 8.16 µM | 22.2 µM | 13.1 µM | 28 µM | 6.99 µM | 30.1 µM | 13.8 µM | 27 µM | 12.4 µM | 38.5 µM | 10.8 µM | 25.1 µM
CCOc1ccc(NC(=O)C(=O)CC(=O)c2c[n+](=O)c3cc(C)c(C)cc3n2[O-])cc1 |  | > 100 µM |  | > 100 µM |  | > 100 µM |  | > 100 µM |  | > 100 µM |  | > 100 µM |  | > 100 µM |  | > 100 µM |  | > 100 µM |  | > 100 µM
O=C(CC1(O)C(=O)Nc2c(Cl)cc(Cl)cc21)c1ccc(Br)cc1Br (stereo unspecified) |  | 22.2 µM |  | 30.6 µM |  | 16.9 µM |  | 36.5 µM |  | 15 µM |  | 57.4 µM |  | 17.3 µM |  | 14.6 µM |  | 17.6 µM |  | 15.2 µM
CC12CCC(O)CC1CCC1C2CCC2(C)C(C3=CC(=O)OC3)CCC12O (stereo unspecified) | 2.39 µM | 5.75 µM |  | 10.2 µM |  | 12.2 µM |  | 3.2 µM |  | 10.6 µM |  | 1.96 µM |  | > 100 µM |  | 1.98 µM |  | 10.1 µM |  | 4.44 µM
CCCCCCCCCCCOc1ccc(C(=O)C(=O)c2ccc(OCCCCCCCCCCC)c(OCCCCCCCCCCC)c2)cc1OCCCCCCCCCCC |  | > 100 µM |  | > 100 µM |  | > 100 µM |  | > 100 µM |  | > 100 µM |  | > 100 µM |  | > 100 µM |  | > 100 µM |  | > 100 µM |  | > 100 µM
